Patent US12617779B2, “Self degradation-type CDK9 inhibitor prodrug and liposome encapsulating same” (Sumitomo Pharma Co., Ltd., priority 2021, dated 2026)
Counter-ions that a name gives are not always drawn.

Assay: Evaluation of conversion rate to active form in buffer solution (Experimental Example 1)
Assay type: physicochemical
Details: for Production rate of Alvocidib / Residual rate: 37° C., 25 umol/L in buffer solution
Summary of the method: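 HPLC read-out: residual parent and Alvocidib production rate after 0, 0.5, 1, 2 and 3 hours. Compounds sat at 25 umol/L, 37° C, in buffers from pH 5.0 to 7.4 (50 mM citrate below pH 6.0, 50 mM phosphate otherwise).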

CCN(CC1CCCCN1)C(=O)Oc1cc(O)c2c(=O)cc(-c3ccccc3Cl)oc2c1[C@H]1CCN(C)C[C@H]1O (stereo partly drawn) [Example 7, 2-(2-chlorophenyl)-5-hydroxy-8-[(3S,4R)-3-hydroxy-1-methylpiperidin-4-yl]-4-oxo-4H-1-benzopyran-7-yl ethyl[(piperidin-2-yl)methyl]carbamate dihydrochloride]
Production rate of Alvocidib (pH5.0, 0 hr): 0.0%
Residual rate (pH5.0, 0 hr): 100.0%
Stability in buffer solution at pH 5 (pH 5, 37° C., up to 2 or 3 hours): stable
Production rate of Alvocidib (pH5.0, 0.5 hr): 0.0%
Residual rate (pH5.0, 0.5 hr): 100.0%
Production rate of Alvocidib (pH5.0, 1 hr): 0.0%
Residual rate (pH5.0, 1 hr): 100.0%
Production rate of Alvocidib (pH5.0, 2 hr): 1.5%
Residual rate (pH5.0, 2 hr): 98.5%
Production rate of Alvocidib (pH5.0, 3 hr): 2.3%
Residual rate (pH5.0, 3 hr): 97.7%
Production rate of Alvocidib (pH5.5, 0 hr): 0.0%
Residual rate (pH5.5, 0 hr): 100.0%
Production rate of Alvocidib (pH5.5, 0.5 hr): 1.2%
Residual rate (pH5.5, 0.5 hr): 98.8%
Production rate of Alvocidib (pH5.5, 1 hr): 2.0%
Residual rate (pH5.5, 1 hr): 98.0%
Production rate of Alvocidib (pH5.5, 2 hr): 3.8%
Residual rate (pH5.5, 2 hr): 96.2%
Production rate of Alvocidib (pH5.5, 3 hr): 5.1%
Residual rate (pH5.5, 3 hr): 94.9%
Production rate of Alvocidib (pH6.0, 0 hr): 1.1%
Residual rate (pH6.0, 0 hr): 98.9%
Production rate of Alvocidib (pH6.0, 0.5 hr): 4.0%
Residual rate (pH6.0, 0.5 hr): 96.0%
Production rate of Alvocidib (pH6.0, 1 hr): 5.4%
Residual rate (pH6.0, 1 hr): 94.6%
Production rate of Alvocidib (pH6.0, 2 hr): 12.5%
Residual rate (pH6.0, 2 hr): 87.5%
Production rate of Alvocidib (pH6.0, 3 hr): 16.6%
Residual rate (pH6.0, 3 hr): 83.4%
Production rate of Alvocidib (pH6.5, 0 hr): 3.3%
Residual rate (pH6.5, 0 hr): 96.7%
Production rate of Alvocidib (pH6.5, 0.5 hr): 12.4%
Residual rate (pH6.5, 0.5 hr): 87.6%
Production rate of Alvocidib (pH6.5, 1 hr): 16.0%
Residual rate (pH6.5, 1 hr): 84.0%
Production rate of Alvocidib (pH6.5, 2 hr): 26.8%
Residual rate (pH6.5, 2 hr): 73.2%
Production rate of Alvocidib (pH6.5, 3 hr): 35.2%
Residual rate (pH6.5, 3 hr): 64.8%
Production rate of Alvocidib (pH7.0, 0 hr): 10.9%
Residual rate (pH7.0, 0 hr): 89.1%
Production rate of Alvocidib (pH7.0, 0.5 hr): 27.3%
Residual rate (pH7.0, 0.5 hr): 72.7%
Production rate of Alvocidib (pH7.0, 1 hr): 38.0%
Residual rate (pH7.0, 1 hr): 62.0%
Production rate of Alvocidib (pH7.0, 2 hr): 52.9%
Residual rate (pH7.0, 2 hr): 47.1%
Production rate of Alvocidib (pH7.0, 3 hr): 70.5%
Residual rate (pH7.0, 3 hr): 29.5%
Production rate of Alvocidib (pH7.4, 0 hr): 19.0%
Residual rate (pH7.4, 0 hr): 81.0%
Conversion to Alvocidib at pH 7.4 (pH 7.4, 37° C., up to 3 hours): rapidly converted to Alvocidib
Production rate of Alvocidib (pH7.4, 0.5 hr): 50.2%
Residual rate (pH7.4, 0.5 hr): 49.8%
Production rate of Alvocidib (pH7.4, 1 hr): 60.8%
Residual rate (pH7.4, 1 hr): 39.2%
Production rate of Alvocidib (pH7.4, 2 hr): 69.0%
Residual rate (pH7.4, 2 hr): 31.0%
Production rate of Alvocidib (pH7.4, 3 hr): 81.0%
Residual rate (pH7.4, 3 hr): 19.0%
